From the NIST ThermoML archive (doi:10.1021/acs.jced.8b01144)
Numbers after ± are expanded uncertainties.

Conditions: Crystal; DSC

Triple point temperature: 453.4 ± 1.2 K
SMILES: NC(=O)c1ccc(N)cc1 [4-aminobenzamide]
